According to the supplement of paper PMC7285287:
Counter-ions that a name gives are not always drawn. ± gives the standard deviation of the averaged measurements.

System: Candida albicans SNY425 biofilm
Assay: biofilm OD600 relative to DMSO control (fraction of DMSO control); higher = more biofilm (less inhibition)
Experimental: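 C. albicans SNY425 biofilm optical density assays (OD600 of the adhered biofilm after media removal) in RPMI-MOPS pH 7.0 at 37 °C with shaking. Groups of 4 to 8 wells per compound are averaged and normalised to the average of DMSO loading control wells. Adherence inhibition was tested at 10 and 40 µM, sustained inhibition and disruption at 40 µM, and the MBIC series at 200 to 0.78 µM.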

[1] = 10 µM, assay detail: adherence inhibition, 96-well, compound during 90 min adherence only
[2] = 40 µM, assay detail: adherence inhibition, 96-well, compound during 90 min adherence only
[3] = 40 µM, assay detail: disruption, 384-well, compound added to 24 h mature biofilm for further 24 h
[4] = 40 µM, assay detail: sustained inhibition, 384-well, compound during adherence and 24 h growth
[5] = 0.78 µM, assay detail: sustained inhibition (MBIC series), 384-well, compound during adherence and 24 h growth
[6] = 3.125 µM, assay detail: sustained inhibition (MBIC series), 384-well, compound during adherence and 24 h growth
[7] = 12.5 µM, assay detail: sustained inhibition (MBIC series), 384-well, compound during adherence and 24 h growth
[8] = 50 µM, assay detail: sustained inhibition (MBIC series), 384-well, compound during adherence and 24 h growth
[9] = 200 µM, assay detail: sustained inhibition (MBIC series), 384-well, compound during adherence and 24 h growth

Row | Compound | biofilm OD600 [1] | biofilm OD600 [2] | biofilm OD600 [3] | biofilm OD600 [4] | biofilm OD600 [5] | biofilm OD600 [6] | biofilm OD600 [7] | biofilm OD600 [8] | biofilm OD600 [9]
1 | Oc1ncnc2[nH]ncc12 [Allopurinol] | 0.938 | 0.887 | 1.02 ± 0.07 | 0.982 ± 0.038 | – | – | – | – | –
2 | CNCCCC1c2ccccc2C=Cc2ccccc21 [Protriptyline hydrochloride] | 1.05 | 0.899 | 1.01 ± 0.012 | 1.02 ± 0.022 | – | – | – | – | –
3 | Nc1ccc(S(=O)(=O)Nc2ccnn2-c2ccccc2)cc1 [Sulfaphenazole] | 0.962 | 0.934 | 1.01 ± 0.017 | 1.01 ± 0.03 | – | – | – | – | –
4 | Cc1cnc(C(=O)O)c[n+]1[O-] [acipimox] | 0.823 | 0.56 | 0.997 ± 0.034 | 0.992 ± 0.029 | – | – | – | – | –
5 | C[C@@H]1CC[C@H]2[C@@H](C)C(=O)O[C@@H]3O[C@@]4(C)CC[C@@H]1[C@]32OO4 [artemisinin] | 1.14 | 0.966 | 0.955 ± 0.017 | 0.838 ± 0.019 | 1.09 | 1.06 | 1.01 | 0.893 | 0.744
6 | O=C([O-])C(O)[C@H](O)[C@@H](O)[C@H](O)[C@H](O)CO.O=C([O-])C(O)[C@H](O)[C@@H](O)[C@H](O)[C@H](O)CO.[Ca+2] (some centres not stated) [calcium gluceptate] | 0.997 | 0.955 | 0.941 ± 0.037 | 0.955 ± 0.022 | 0.996 | 1.09 | 1.02 | 1.02 | 0.823
7 | N[C@@H](C(=O)N[C@@H]1C(=O)N2C(C(=O)O)=C(Cl)CS[C@H]12)c1ccccc1 [cefaclor] | 1.07 | 0.896 | 1.03 ± 0.028 | 0.983 ± 0.032 | – | – | – | – | –
8 | Oc1c(Cl)cc(Cl)c2cccnc12 [chloroxine] | 0.788 | 0.373 | 0.907 ± 0.031 | 0.28 ± 0.019 | 1.03 | 1.03 | 0.926 | 0.333 | 0.268
9 | CN(C)CCC(c1ccc(Cl)cc1)c1ccccn1 (configuration not stated) [chlorpheniramine maleate] | 1.02 | 0.894 | 1 ± 0.044 | 1.01 ± 0.026 | – | – | – | – | –
10 | N[C@H](Cc1ccccc1)C(=O)O [d-phenylalanine] | 1 | 1.01 | 0.973 ± 0.034 | 0.994 ± 0.06 | – | – | – | – | –
11 | CCCCCCOC(=O)NC(=N)c1ccc(NCc2nc3cc(C(=O)N(CCC(=O)OCC)c4ccccn4)ccc3n2C)cc1 [dabigatran etexilate mesylate] | 1.05 | 0.776 | 0.971 ± 0.031 | 0.894 ± 0.046 | 0.9 | 0.9 | 0.92 | 0.843 | 0.628
12 | NC(=O)C(c1ccccc1)(c1ccccc1)[C@@H]1CCN(CCc2ccc3c(c2)CCO3)C1 [darifenacin hydrobromide] | 1.04 | 0.916 | 1 ± 0.018 | 1.05 ± 0.046 | – | – | – | – | –
13 | Cc1c(OCC(F)(F)F)ccnc1C[S@@+]([O-])c1nc2ccccc2[nH]1 [dexlansoprazole] | 0.925 | 0.837 | 1.01 ± 0.024 | 0.7 ± 0.091 | 0.981 | 0.887 | 0.833 | 0.643 | 0.625
14 | COc1ccc(-c2cc(=O)c3c(O)cc(O[C@@H]4O[C@H](CO[C@@H]5O[C@@H](C)[C@H](O)[C@@H](O)[C@H]5O)[C@@H](O)[C@H](O)[C@H]4O)cc3o2)cc1O [diosmin] | 1 | 0.962 | 1.09 ± 0.14 | 1.07 ± 0.059 | – | – | – | – | –
15 | CCN(CC)C(=S)SSC(=S)N(CC)CC [disulfiram] | 0.991 | 0.857 | 0.999 ± 0.012 | 0.76 ± 0.084 | 0.958 | 1 | 1 | 0.764 | 0.417
16 | Cn1c(=O)c2c(ncn2CC(O)CO)n(C)c1=O (configuration not stated) [dyphylline] | 0.909 | 0.872 | 1.02 ± 0.046 | 1.02 ± 0.047 | – | – | – | – | –
17 | CN1CCC[C@@H]1Cc1c[nH]c2ccc(CCS(=O)(=O)c3ccccc3)cc12 [eletriptan hydrobromide] | 0.99 | 0.945 | 1.014 ± 0.0095 | 1 ± 0.026 | – | – | – | – | –
18 | CC[C@H]1OC(=O)[C@H](C)[C@@H](O[C@H]2C[C@@](C)(OC)[C@@H](O)[C@H](C)O2)[C@H](C)[C@@H](O[C@@H]2O[C@H](C)C[C@H](N(C)C)[C@H]2O)[C@](C)(O)C[C@@H](C)C(=O)[C@H](C)[C@@H](O)[C@]1(C)O [erythromycin] | 0.879 | 0.874 | 1.03 ± 0.026 | 1.03 ± 0.017 | – | – | – | – | –
19 | CCC(=O)Oc1ccc2c(c1)CC[C@@H]1[C@@H]2CC[C@]2(C)[C@@H](OC(=O)CC)CC[C@@H]12 [estradiol dipropionate] | 0.958 | 0.844 | 0.954 ± 0.037 | 0.987 ± 0.012 | – | – | – | – | –
20 | O=c1[nH]c(=O)n([C@H]2C[C@H](O)[C@@H](CO)O2)cc1F [floxuridine] | 1.02 | 0.967 | 0.969 ± 0.017 | 0.927 ± 0.025 | – | – | – | – | –
21 | Nc1nc(=O)[nH]cc1F [flucytosine] | 0.907 | 0.776 | 0.983 ± 0.06 | 0.798 ± 0.066 | 0.866 | 0.873 | 0.862 | 0.758 | 0.719
22 | CC1OC1P(=O)(O)O (configuration not stated) [fosphomycin] | 0.972 | 1.04 | 1.01 ± 0.019 | 0.982 ± 0.011 | – | – | – | – | –
23 | N[C@@H](Cc1cc(I)c(Oc2ccc(O)c(I)c2)c(I)c1)C(=O)O [liothyronine sodium] | 1.14 | 1.15 | 0.989 ± 0.05 | 0.96 ± 0.021 | – | – | – | – | –
24 | Cc1cccc(Nc2ccccc2C(=O)O)c1C [mefenamic acid] | 0.973 | 0.93 | 0.875 ± 0.038 | 0.905 ± 0.011 | 1.02 | 1.01 | 0.958 | 0.875 | 0.714
25 | CCN(CC)C(=O)C1(c2ccccc2)CC1CN (configuration not stated) [milnacipran hydrochloride] | 0.934 | 0.943 | 0.977 ± 0.026 | 0.962 ± 0.018 | – | – | – | – | –
26 | CCCCCCCCCCCCCCCCOP(=O)([O-])OCC[N+](C)(C)C [miltefosine] | 0.99 | 0.844 | 1.09 ± 0.035 | 0.222 ± 0.015 | 0.9 | 0.9 | 1.08 | 0.298 | 0.259
27 | O=C(O)c1cccnc1 [niacin] | 0.913 | 0.91 | 1.016 ± 0.002 | 0.967 ± 0.024 | – | – | – | – | –
28 | Cc1c(NC(=O)c2cccnc2)c(=O)n(-c2ccccc2)n1C [nifenazone] | 0.927 | 0.919 | 1.004 ± 0.0086 | 0.968 ± 0.065 | – | – | – | – | –
